This note sets out measurements from patent publication US20040077650A1, “Cannabinoid receptor ligands and uses thereof” (Pfizer Inc., priority 2002, published 2004).

The test has as its target T1, CB-1 receptor (Rattus norvegicus, UniProt P20272).
T1 construct: tissue Pel Freeze Biologicals, Rogers, Ark; host or cells: rat brain membrane homogenate
As to the kind of experiment: CB-1 receptor binding assay ([3H]SR141716A displacement). The note with it: inhibition of [3H] SR141716A binding, rat brain tissue, 20° C. for 60 minutes. How it is done: The following assays were designed to detect compounds that inhibit the binding of [3H] SR141716A (selective CB-1 radiolabeled ligand) and [3H] 5-(1,1-dimethyl-heptyl)-2-[5-hydroxy-2-(3-hydroxy-propyl)-cyclohexyl]-phenol (CB-1/CB-2 radiolabeled ligand) to their respective receptors.
PelFreeze brains (available from Pel Freeze Biologicals, Rogers, Ark.) were cut up and placed in tissue preparation buffer (5 mM Tris HCl, pH=7.4 and 2 mM EDTA), polytroned at high speed and kept on ice for 15 minutes. The homogenate was then spun at 1,000×g for 5 minutes at 4° C. The supernatant was recovered and centrifuged at 100,000×G for 1 hour at 4° C. The pellet was then re-suspended in 25 ml of TME ([…] Tris, pH=7.4, 5 mM MgCl2, and 1 mM EDTA) per brain used. A protein assay was performed and 200 μl of tissue totaling 20 μg was added to the assay.
The test compounds were diluted in drug buffer (0.5% BSA, 10% DMSO and TME) and then 25 μl were added to a deep well polypropylene plate. [3H] SR141716A was diluted in a ligand buffer (0.5% BSA plus TME) and 25 μl were added to the plate. A BCA protein assay was used to determine the appropriate tissue concentration and then 200 μl of rat brain tissue at the appropriate concentration was added to the plate. […] In the morning the filters were counted on a Wallac Betaplate™ counter (available from PerkinElmer Life Sciences™, Boston, Mass.).

T1 sequence (P20272 whole entry): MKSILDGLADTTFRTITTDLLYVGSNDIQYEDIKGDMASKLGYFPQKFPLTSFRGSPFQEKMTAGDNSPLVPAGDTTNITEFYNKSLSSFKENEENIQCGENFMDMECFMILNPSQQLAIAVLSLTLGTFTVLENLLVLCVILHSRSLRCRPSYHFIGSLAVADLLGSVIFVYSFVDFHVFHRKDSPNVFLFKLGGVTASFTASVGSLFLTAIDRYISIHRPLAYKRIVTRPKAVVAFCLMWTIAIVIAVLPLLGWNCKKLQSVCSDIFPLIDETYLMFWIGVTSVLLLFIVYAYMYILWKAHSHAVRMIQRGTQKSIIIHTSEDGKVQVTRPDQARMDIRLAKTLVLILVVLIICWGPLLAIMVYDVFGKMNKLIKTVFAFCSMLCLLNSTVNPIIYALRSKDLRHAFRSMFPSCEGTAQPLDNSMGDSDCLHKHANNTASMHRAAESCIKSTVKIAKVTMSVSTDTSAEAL

In the case of `Cc1c(-c2ncn(C)c2-c2ccccc2)nn(-c2ccccc2Cl)c1-c1ccc(Cl)cc1` [Example 1B-13, 5-(4-Chloro-phenyl)-1-(2-chloro-phenyl)-4-methyl-3-(1-methyl-5-phenyl-1H-imidazol-4-yl)-1H-pyrazole], the binding affinity was 371 nM.
